Measured values: patent US10206907B2, “Compounds useful for the treatment of degenerative and inflammatory diseases” (GALAPAGOS NV, priority 2008, dated 2019)
Like-named read-outs stand apart in the source and are kept apart here.

Key:
[1] = biological target: Recombinant human JAK3 catalytic domain (Homo sapiens (Human), UniProt P52333); assay: JAK3 inhibition assay; type: biochemical
[2] = biological target: Recombinant human JAK2 catalytic domain (Homo sapiens (Human), UniProt O60674); assay: JAK2 inhibition assay; type: biochemical; conditions: semi-quantitative score
How it was run: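 Radiometric kinase reactions ran for 90 min at 30 °C and were stopped with phosphoric acid, then washed and counted by scintillation. Percent inhibition was set relative to vehicle and to 10 μM staurosporine background. IC50 was derived from dose-dilution series.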

[3] = Microsomal stability, rat liver microsomes; type: in vitro ADME; conditions: percentage of compound remaining after 60 minutes, 3 μM compound
How it was run: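 Compound was incubated with liver microsomes plus an NADP+/glucose-6-phosphate/G6PDH/MgCl2 regenerating system at 37°C for 1 h. Reactions were stopped 1:1 with MeOH or ACN and analysed by LCMS.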

[4] = biological target: Recombinant human TYK2 catalytic domain (Homo sapiens (Human), UniProt P29597); assay: TYK2 inhibition assay; type: biochemical; conditions: semi-quantitative score
How it was run: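 Recombinant human TYK2 catalytic domain; radiometric kinase reaction run 90 min at 30° C, stopped with phosphoric acid, washed and counted by scintillation.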

[5] = test system: JAK-STAT signalling in HeLa cells; assay: JAK-STAT signalling assay (OSM-triggered pSTAT1(2)-luciferase reporter in HeLa cells); type: cell-based; conditions: Homo sapiens; HeLa cells, OSM-triggered pSTAT1(2)-luciferase reporter; read-out: STAT signalling EC50
How it was run: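 HeLa cells transiently transfected with pSTAT1(2)-luciferase reporter plus LacZ internal control, incubated overnight at 37 °C, 10% CO2, then OSM-stimulated with compound. Luciferase read by Steadylite luminescence and normalised to β-galactosidase (ONPG); percent inhibition from controls, EC50 from dose-response.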

[6] = Caco2 permeability (bi-directional); type: in vitro ADME, human; conditions: human, pH 7.4; for efflux ratio at 1 h, 10 µM: Caco-2, ratio of PappB>A/PappA>B; for Papp A→B at 1 h, 10 µM: Caco-2, apical to basolateral, read-out: Papp (A2B)
How it was run: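 Bidirectional transport across Caco-2 monolayers was run for 1 h at 37 °C with shaking, with 50 μM Lucifer Yellow in the donor to check monolayer integrity (acceptance ≤100 nm/s). Apical and basal compound levels were measured by LC-MS/MS, and efflux ratio was taken as PappB>A/PappA>B.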

Chain of Recombinant human JAK3 catalytic domain (P52333 781-1124): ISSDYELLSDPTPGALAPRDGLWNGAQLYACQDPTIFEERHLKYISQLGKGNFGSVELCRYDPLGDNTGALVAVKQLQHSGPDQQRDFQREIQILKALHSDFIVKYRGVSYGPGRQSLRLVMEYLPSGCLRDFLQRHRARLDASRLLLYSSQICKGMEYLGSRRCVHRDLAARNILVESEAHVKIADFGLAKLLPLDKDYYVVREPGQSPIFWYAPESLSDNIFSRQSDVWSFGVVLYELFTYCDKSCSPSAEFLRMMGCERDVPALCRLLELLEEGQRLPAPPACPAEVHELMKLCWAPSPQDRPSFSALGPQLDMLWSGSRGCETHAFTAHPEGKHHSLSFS
Chain of Recombinant human JAK2 catalytic domain (O60674 808-1132): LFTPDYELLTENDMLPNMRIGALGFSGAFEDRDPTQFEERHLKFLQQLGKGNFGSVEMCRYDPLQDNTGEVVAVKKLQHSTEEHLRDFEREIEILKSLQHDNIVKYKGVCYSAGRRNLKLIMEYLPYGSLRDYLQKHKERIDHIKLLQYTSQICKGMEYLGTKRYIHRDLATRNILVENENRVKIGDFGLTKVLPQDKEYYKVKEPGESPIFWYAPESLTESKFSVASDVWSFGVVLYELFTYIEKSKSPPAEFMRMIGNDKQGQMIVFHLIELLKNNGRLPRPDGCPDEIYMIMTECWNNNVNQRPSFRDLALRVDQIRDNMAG
Chain of Recombinant human TYK2 catalytic domain (P29597 871-1187): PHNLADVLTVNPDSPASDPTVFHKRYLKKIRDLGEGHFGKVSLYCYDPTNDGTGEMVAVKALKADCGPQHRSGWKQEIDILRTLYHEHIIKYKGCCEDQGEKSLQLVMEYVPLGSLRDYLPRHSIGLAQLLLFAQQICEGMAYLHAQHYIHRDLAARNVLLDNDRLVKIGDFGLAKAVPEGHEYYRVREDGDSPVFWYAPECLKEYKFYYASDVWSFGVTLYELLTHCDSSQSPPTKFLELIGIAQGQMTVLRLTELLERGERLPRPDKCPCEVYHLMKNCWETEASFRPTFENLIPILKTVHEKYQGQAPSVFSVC

Row | IC50 [2] [nM] | Microsomal Stability Rat (%) [3] | EC50 [5] [nM] | efflux ratio at 1 h, 10 µM [6] | IC50 ([1]; semi-quantitative score) [nM] | Papp A→B at 1 h, 10 µM [6] [×10⁻⁶ cm/s] | SMILES | IC50 [1] [nM] | IC50 [4] [nM]
1 | > 1000 | ** (** 26-50) | > 1000 |  | > 1000 |  | O=C(Nc1nc2cccc(-c3ccc(CN4CCOCC4)cc3)n2n1)C1CC1 [Compound 18, N-(5-(4-(morpholinomethyl)phenyl)-[1,2,4]triazolo[1,5-a]pyridin-2-yl)cyclopropanecarboxamide] |  | > 1000
2 | 101 to 500 | **** (**** 76-100) | 1 to 100 | 5.5 | 101 to 500 | 6.5 | CC1(C)CN(C(=O)c2ccc(-c3cccc4nc(NC(=O)C5CC5)nn34)cc2)C1 [Compound 330, Cyclopropanecarboxylic acid (5-[4-(3,3-dimethyl-azetidine-1-carbonyl)-phenyl]-[1,2,4]triazolo[1,5-a]pyridin-2-yl}-amide] |  | 
3 |  | * (* 0-25) | 501 to 1000 | 2 |  | 14.7 | CC1CCCN(C(=O)c2ccc(-c3cccc4nc(NC(=O)C5CC5)nn34)cc2)C1 (stereo not drawn) [Compound 145, N-(5-(4-(3-methylpiperidine-1-carbonyl)phenyl)-[1,2,4]triazolo[1,5-a]pyridin-2-yl)cyclopropanecarboxamide] |  | 
4 | 101 to 500 | **** (**** 76-100) | 101 to 500 | 9.3 | < 100 | 6.05 | CC1CN(C(=O)c2ccc(-c3cccc4nc(NC(=O)C5CC5)nn34)cc2)CC(C)O1 (stereo not drawn) [Compound 215, Cyclopropanecarboxylic acid {5-[4-(2,6-dimethyl-morpholine-4-carbonyl)-phenyl]-[1,2,4]triazolo[1,5-a]pyridin-2-yl}-amide] |  | 

Row | SMILES | IC50 [2] [nM] | Microsomal Stability Rat (%) [3] | EC50 [5] [nM] | efflux ratio at 1 h, 10 µM [6] | IC50 ([1]; semi-quantitative score) [nM] | Papp A→B at 1 h, 10 µM [6] [×10⁻⁶ cm/s] | IC50 [1] [nM] | IC50 [4] [nM]
5 | N#Cc1ccc(COc2ccc(-c3cccc4nc(NC(=O)C5CC5)nn34)cc2)cn1 [Compound 176, N-(5-(4-((6-cyanopyridin-3-yl)methoxy)phenyl)-[1,2,4]triazolo[1,5-a]pyridin-2-yl)cyclopropanecarboxamide] | < 100 | **** (**** 76-100) | 101 to 500 | 0.8 |  |  | < 100 | < 100
